Patent US9662327B2 (AGIOS PHARMACEUTICALS, INC, priority 2011, dated 2017)

Biological target: IDH1 R132H (Homo sapiens (Human), UniProt O75874, R132H)
Experiment: Assays for IDH1 R132H Inhibitors (NADPH/aKG, resazurin detection)
Assay type: biochemical
Settings: IDH1 R132H enzyme, Table 2; read-out: IDHR132H Activity
Outline: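 Substrate mix held 8 uM NADPH plus 2 mM aKG; buffer was 20 mM Tris pH 7.5 with 150 mM NaCl, 10 mM MgCl2, 0.03% BSA. After 50 min room-temperature reaction, NADPH remaining was detected with 30 μM resazurin mix over 5 min.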

Chain of IDH1 R132H (O75874 whole entry R132H): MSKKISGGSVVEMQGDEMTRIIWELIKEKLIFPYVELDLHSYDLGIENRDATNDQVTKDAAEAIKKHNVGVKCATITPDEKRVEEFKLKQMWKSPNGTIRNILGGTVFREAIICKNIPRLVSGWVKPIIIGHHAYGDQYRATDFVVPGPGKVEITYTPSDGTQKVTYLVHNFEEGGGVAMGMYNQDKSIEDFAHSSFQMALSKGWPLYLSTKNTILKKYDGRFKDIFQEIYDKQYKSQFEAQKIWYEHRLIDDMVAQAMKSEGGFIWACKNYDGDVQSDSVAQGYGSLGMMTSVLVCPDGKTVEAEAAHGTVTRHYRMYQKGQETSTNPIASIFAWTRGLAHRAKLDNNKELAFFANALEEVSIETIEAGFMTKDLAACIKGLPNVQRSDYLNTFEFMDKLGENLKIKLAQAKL

Compound	IC50 [nM]
CC[C@@H]1CN(c2nc(C3CC3)c3c(c2C#N)CC(C)(C)OC3)CCN1C(=O)Cc1ccccn1 [Compound 290]	1000 to 10000
CC[C@@H]1CN(c2nc(C3CC3)c3c(c2C#N)CC(C)(C)OC3)CCN1C(=O)c1cscn1 [Compound 293]	1000 to 10000
CC[C@@H]1CN(c2nc(C3CC3)c3c(c2C#N)CC(C)(C)OC3)CCN1C(=O)Cc1cccnc1 [Compound 294]	500 to 1000
CC[C@@H]1CN(c2nc(C3CC3)c3c(c2C#N)CC(C)(C)OC3)CCN1C(=O)Cc1ccccc1OC [Compound 295]	500 to 1000
CC[C@@H]1CN(c2nc(C3CC3)c3c(c2C#N)CC(C)(C)OC3)CCN1C(=O)CCOC [Compound 297, (R)-8-cyclopropyl-6-(3-ethyl-4-(3-methoxypropanoyl)piperazin-1-yl)-3,3-dimethyl-3,4-dihydro-1H-pyrano[3,4-c]pyridine-5-carbonitrile]	< 500
COc1ccc(NC(=O)N2CCN(c3nc(C4CCCCC4)c4c(c3C#N)CCOC4)C[C@H]2C)cc1 [Compound 299, (R)-4-(5-cyano-8-cyclohexyl-3,4-dihydro-1H-pyrano[3,4-c]pyridin-6-yl)-N-(4-methoxyphenyl)-2-methylpiperazine-1-carboxamide]	1000 to 10000
C[C@@H]1CN(c2nc(C3CCCCC3)c3c(c2C#N)CCOC3)CCN1C(=O)Nc1ccccc1F [Compound 300, (R)-4-(5-cyano-8-cyclohexyl-3,4-dihydro-1H-pyrano[3,4-c]pyridin-6-yl)-N-(2-fluorophenyl)-2-methylpiperazine-1-carboxamide]	1000 to 10000
Cc1ccc(S(=O)(=O)N2CCN(c3nc(C4CC4)c4c(c3C#N)CC(C)(C)OC4)C[C@H]2C(C)C)cc1 [Compound 302, (R)-8-cyclopropyl-6-(3-isopropyl-4-tosylpiperazin-1-yl)-3,3-dimethyl-3,4-dihydro-1H-pyrano[3,4-c]pyridine-5-carbonitrile]	1000 to 10000
CC(C)[C@@H]1CN(c2nc(C3CC3)c3c(c2C#N)CC(C)(C)OC3)CCN1C(=O)Nc1ccc(C#N)cc1 [Compound 303, (R)-4-(5-cyano-8-cyclopropyl-3,3-dimethyl-3,4-dihydro-1H-pyrano[3,4-c]pyridin-6-yl)-N-(4-cyanophenyl)-2-isopropylpiperazine-1-carboxamide]	1000 to 10000
C=CCNC(=O)N1CCN(c2nc(C3CC3)c3c(c2C#N)CC(C)(C)OC3)C[C@H]1C(C)C [Compound 304, (R)—N-allyl-4-(5-cyano-8-cyclopropyl-3,3-dimethyl-3,4-dihydro-1H-pyrano[3,4-c]pyridin-6-yl)-2-isopropylpiperazine-1-carboxamide]	< 500
CC(C)[C@@H]1CN(c2nc(C3CC3)c3c(c2C#N)CC(C)(C)OC3)CCN1C(=O)C1CCOCC1 [Compound 305]	1000 to 10000
CC(C)[C@@H]1CN(c2nc(C3CC3)c3c(c2C#N)CC(C)(C)OC3)CCN1C(=O)OC(C)(C)C [Compound 306, (R)-tert-butyl 4-(5-cyano-8-cyclopropyl-3,3-dimethyl-3,4-dihydro-1H-pyrano[3,4-c]pyridin-6-yl)-2-isopropylpiperazine-1-carboxylate]	1000 to 10000
C[C@@H]1CN(c2nc(C3CC3)c3c(c2C#N)CC(C)(C)OC3)[C@@H](C)CN1C(=O)Cc1cccs1 [Compound 309]	1000 to 10000
COCCC(=O)N1C[C@H](C)N(c2nc(C3CC3)c3c(c2C#N)CC(C)(C)OC3)C[C@H]1C [Compound 310, 8-cyclopropyl-6-((2S,5R)-4-(3-methoxypropanoyl)-2,5-dimethylpiperazin-1-yl)-3,3-dimethyl-3,4-dihydro-1H-pyrano[3,4-c]pyridine-5-carbonitrile]	1000 to 10000
CCOC(=O)C1CN(c2nc(C(C)C)c3c(c2C#N)CC(C)(C)OC3)CCN1C(=O)CCOC (centres unmarked) [Compound 311, ethyl 4-(5-cyano-8-isopropyl-3,3-dimethyl-3,4-dihydro-1H-pyrano[3,4-c]pyridin-6-yl)-1-(3-methoxypropanoyl)piperazine-2-carboxylate]	500 to 1000
COCCC(=O)N1CCN(c2nc(C3CCCCC3)c3c(c2C#N)CC(C)(C)OC3)C[C@H]1C [Compound 312, (R)-8-cyclohexyl-6-(4-(3-methoxypropanoyl)-3-methylpiperazin-1-yl)-3,3-dimethyl-3,4-dihydro-1H-pyrano[3,4-c]pyridine-5-carbonitrile]	1000 to 10000
CCOC(=O)C1CN(c2nc(C3CCCCC3)c3c(c2C#N)CCOC3)CCN1C(=O)CCSC (centres unmarked) [Compound 313, ethyl 4-(5-cyano-8-cyclohexyl-3,4-dihydro-1H-pyrano[3,4-c]pyridin-6-yl)-1-(3-(methylthio)-propanoyl)piperazine-2-carboxylate]	1000 to 10000
CC(C)[C@@H]1CN(c2nc(C3CC3)c3c(c2C#N)CC(C)(C)OC3)CCN1C(=O)CCl [Compound 317, (R)-6-(4-(2-chloroacetyl)-3-isopropylpiperazin-1-yl)-8-cyclopropyl-3,3-dimethyl-3,4-dihydro-1H-pyrano[3,4-c]pyridine-5-carbonitrile]	< 500
CC1(C)Cc2c(C#N)c(N3CCN(C(=O)c4ccco4)C(C)(C)C3)nc(C3CC3)c2CO1 [Compound 319]	1000 to 10000
Cc1occc1C(=O)N1CCN(c2nc(C3CC3)c3c(c2C#N)CC(C)(C)OC3)CC1(C)C [Compound 321]	1000 to 10000
CC(=O)OCCCN1CCN(c2nc(C3CC3)c3c(c2C#N)CC(C)(C)OC3)C[C@H]1C(C)C [Compound 322]	1000 to 10000
CC(C)[C@@H]1CN(c2nc(C3CC3)c3c(c2C#N)CC(C)(C)OC3)CCN1C(=O)Cn1cccn1 [Compound 325, (R)-6-(4-(2-(1H-pyrazol-1-yl)acetyl)-3-isopropylpiperazin-1-yl)-8-cyclopropyl-3,3-dimethyl-3,4-dihydro-1H-pyrano[3,4-c]pyridine-5-carbonitrile]	500 to 1000
CCOC(=O)C1CN(c2nc(C(C)C)c3c(c2C#N)CC(C)(C)OC3)CCN1C(=O)OCCOC (centres unmarked) [Compound 329, 2-ethyl 1-(2-methoxyethyl) 4-(5-cyano-8-isopropyl-3,3-dimethyl-3,4-dihydro-1H-pyrano[3,4-c]pyridin-6-yl)piperazine-1,2-dicarboxylate]	1000 to 10000

Other lines, results leading:

IC50 [nM]	Compound
500 to 1000	CC[C@@H]1CN(c2nc(C3CC3)c3c(c2C#N)CC(C)(C)OC3)CCN1C(=O)Cc1cccc(OC)c1 [Compound 296]
1000 to 10000	CCOC(=O)C1CN(c2nc(C(C)C)c3c(c2C#N)CC(C)(C)OC3)CCN1C(=O)c1ccco1 (centres unmarked) [Compound 298, ethyl 4-(5-cyano-8-isopropyl-3,3-dimethyl-3,4-dihydro-1H-pyrano[3,4-c]pyridin-6-yl)-1-(furan-2-carbonyl)piperazine-2-carboxylate]
1000 to 10000	Cc1ccc(NC(=O)N2CCN(c3nc(C4CC4)c4c(c3C#N)CC(C)(C)OC4)C[C@H]2C(C)C)cc1 [Compound 301, (R)-4-(5-cyano-8-cyclopropyl-3,3-dimethyl-3,4-dihydro-1H-pyrano[3,4-c]pyridin-6-yl)-2-isopropyl-N-p-tolylpiperazine-1-carboxamide]
1000 to 10000	C[C@@H]1CN(c2nc(C3CC3)c3c(c2C#N)CC(C)(C)OC3)[C@@H](C)CN1C(=O)c1ccoc1 [Compound 308, 8-cyclopropyl-6-((2S,5R)-4-(furan-3-carbonyl)-2,5-dimethylpiperazin-1-yl)-3,3-dimethyl-3,4-dihydro-1H-pyrano[3,4-c]pyridine-5-carbonitrile]
1000 to 10000	CCOC(=O)C1CN(c2nc(C3CCCCC3)c3c(c2C#N)CCOC3)CCN1C(=O)c1ccco1 (centres unmarked) [Compound 314, ethyl 4-(5-cyano-8-cyclohexyl-3,4-dihydro-1H-pyrano[3,4-c]pyridin-6-yl)-1-(furan-2-carbonyl) piperazine-2-carboxylate]
1000 to 10000	CCOC(=O)C1CN(c2nc(C3CCCCC3)c3c(c2C#N)CCOC3)CCN1C(=O)OCCOC (centres unmarked) [Compound 315, 2-ethyl-1-(2-methoxyethyl) 4-(5-cyano-8-cyclohexyl-3,4-dihydro-1H-pyrano[3,4-c]pyridin-6-yl)-piperazine-1,2-dicarboxylate]
1000 to 10000	COc1ccc(NC(=O)N2CCN(c3nc(C4CC4)c4c(c3C#N)CC(C)(C)OC4)C[C@H]2C(C)C)cc1 [Compound 316, (R)-4-(5-cyano-8-cyclopropyl-3,3-dimethyl-3,4-dihydro-1H-pyrano[3,4-c]pyridin-6-yl)-2-isopropyl-N-(4-methoxyphenyl)piperazine-1-carboxamide]
1000 to 10000	CC1(C)Cc2c(C#N)c(N3CCN(C(=O)c4ccoc4)C(C)(C)C3)nc(C3CC3)c2CO1 [Compound 318, 8-cyclopropyl-6-(4-(furan-3-carbonyl)-3,3-dimethylpiperazin-1-yl)-3,3-dimethyl-3,4-dihydro-1H-pyrano[3,4-c]pyridine-5-carbonitrile]
1000 to 10000	CSCCC(=O)N1CCN(c2nc(C3CC3)c3c(c2C#N)CC(C)(C)OC3)CC1(C)C [Compound 320, 8-cyclopropyl-6-(3,3-dimethyl-4-(3-(methylthio)propanoyl)piperazin-1-yl)-3,3-dimethyl-3,4-dihydro-1H-pyrano[3,4-c]pyridine-5-carbonitrile]
1000 to 10000	CC(C)[C@@H]1CN(c2nc(C3CC3)c3c(c2C#N)CC(C)(C)OC3)CCN1S(C)(=O)=O [Compound 323, (R)-8-cyclopropyl-6-(3-isopropyl-4-(methylsulfonyl)piperazin-1-yl)-3,3-dimethyl-3,4-dihydro-1H-pyrano[3,4-c]pyridine-5-carbonitrile]
1000 to 10000	CC(C)[C@@H]1CN(c2nc(C3CC3)c3c(c2C#N)CC(C)(C)OC3)CCN1C(=O)Cn1cncn1 [Compound 324, (R)-6-(4-(2-(1H-1,2,4-triazol-1-yl)acetyl)-3-isopropylpiperazin-1-yl)-8-cyclopropyl-3,3-dimethyl-3,4-dihydro-1H-pyrano[3,4-c]pyridine-5-carbonitrile]
1000 to 10000	CCCCCNC(=O)N1CCN(c2nc(C3CC3)c3c(c2C#N)CC(C)(C)OC3)C[C@H]1C(C)C [Compound 327]
